Results as given in patent publication US20180200232A1, “PHARMACEUTICAL COMPOSITIONS USEFUL FOR THE TREATEMENT OF TISSUE INJURY” (MedRegen, LLC, priority 2015, published 2018).
Several values for one entry are separate records, joined by “and”; a condition that tells them apart may be missing. Equal entries are not always repeated.

Assays:
[1] = molecular target: CXCR4 chomokin receptor (Homo sapiens, UniProt P61073); details: read-out: IC50, binds to and inhibits the CXCR4 receptor; cited from earlier work
[2] = tested on: colony forming cells (CFCs) in mobilized peripheral blood; assay: CFC assay for stem cell mobilization activity in mice; assay type: in vivo, C57/B6 mice; details: peripheral blood 3 hours after drug treatment; AMD3100 1.0 mg/kg, Tacrolimus 0.1 mg/kg; vs saline (FIG. 1)
From the text: Hematopoietic colony-forming cell (CFC) assays have been used extensively for research and clinical applications in humans and animal models as a way of quantifying and assessing the hematopoietic progenitor content of a cell sample. The stem cell mobilization activity can be measured by using CFC assays in mobilized peripheral blood samples. CFCs are able to divide and differentiate into a colony of more mature cells that can be detected by light microscopy. This allows for the quantification of multipotent stem cell lineages mobilized by pharmaceutical agents.
C57/B6 mice were divided into four treatment groups: 1) control group treated with saline; 2) AMD3100 group (1.0 mg/kg); (3) Tacrolimus group treated with
low-dose (0.1 mg/kg); and (4) AF Combination (containing AMD3100 and Tacrolimus). […] Viable PBMCs were counted and mixed with Methocult GF methylcellulose medium (StemCell Technologies, Vancouver, BC, Canada; Cat.: 03444) containing 100 Uml penicillin and 100 μg/ml streptomycin to give a final density of 1×10^5 viable PBMCs/1.5 ml of medium. […] Colony-forming units (CFUs) were counted using an inverted microscope (Carl Zeiss Microscopy, Thornwood, N.Y.) at ×4. The number of CFUs was determined by dividing the number of viable cells per milliliter by the number of plated cells per well and multiplying by the number of counted CFUs/well.

[3] = tested on: renal allograft rejection; assay: mismatched kidney transplantation in miniature swine; assay type: in vivo; details: for Creatinine (serum): at time of death; for effect on survival: drug alone; for Survival: one animal per value; for post-operative day of death or euthanasia: single perioperative course
From the text: Animals—SLA-identified donor and recipient swine (weight 50-80 kg) were obtained from Transplantation Biology Research Center of Massachusetts General Hospital, Boston, Mass. The immunogenetic characteristics of these swine have been described previously (30). Two-haplotype full MHC class I and class II mismatched donors and recipients were used for kidney transplantation. […] Institutional review board (Animal Care and Use Committee) approval was obtained for this study. All animal care and procedures were in compliance with the “Principles of Laboratory Animal Care” formulated by the National Society of Medical Research and the “Guide for the Care and Use of Laboratory Animals” prepared by the Institute of Laboratory Animal Resources, National Research Council, and published by the National Academies Press, revised 2011.
Kidney transplantation—The surgical procedure used for kidney transplantation has been described in Kirkman R L, et al. Transplantation in miniature swine. VI. Factors influencing survival of renal allografts. Transplantation 1979; 28: 18-23, the entire disclosure of which is herein incorporated by reference. Briefly, donor kidneys were flushed and persevered in cold saline for 3-6 h before reperfusion. The recipients underwent bilateral nephrectomy. […] The kidney transplantation was completed with a vesicoureteral anastomosis. An indwelling Silastic central venous catheter was placed surgically into the external or internal jugular vein. The catheter facilitated frequent blood sampling for in vitro assays and for monitoring of renal function and whole-blood Tacrolimus levels.
Rejection monitoring—Kidney function was monitored by serial serum creatinine levels. Serum creatinine and blood urea nitrogen levels were analyzed in the Phenotyping Laboratory of the Department of Comparative Medicine at Johns Hopkins. Biopsies were performed on transplant recipients using needle core biopsy via an open or percutaneous ultrasound-guided approach. Renal allograft rejection was defined as sustained rise in serum creatinine to >10 mg/dL or anuria (normal laboratory value for swine serum creatinine is 1-3 mg/dL).
Histopathological examination—Core needle biopsies or wedge biopsies were performed on renal allografts. Scoring of acute rejection was based on the Banff classification; see, e.g., Solez K, et al. Banff 07 classification of renal allograft pathology: Updates and future directions. Am J Transplant 2008; 8: 753-760, the entire disclosure of which is herein incorporated by reference. Masson trichrome staining was done according to standard protocols.
SLA-identified and -mismatched inbred miniature swine were subjected to bilateral nephrectomy and transplantation (FIG. 1B) as described in Sachs D H, et al. Transplantation in miniature swine. I. Fixation of the major histocompatibility complex. Transplantation 1976; 22: 559-567, the entire disclosure of which is herein incorporated by reference. […] VI. Factors influencing survival of renal allografts. Transplantation 1979; 28: 18-23, supra. Five experimental treatment groups were defined as follows, and each group received subcutaneous injections on days 0, 2, 4, 6, and 8 post-transplantation: (1) saline (n=1); (2) low-dose (0.03 mg/kg) Tacrolimus alone (n=3); (3) AMD3100 1 mg/kg alone (n=3); (4) AF Combination treatment (AMD3100 1 mg/kg and Tacrolimus 0.03 mg/kg) (n=1); and (5) AF Combination treatment as in group 4 but with repeat of the 8-day course at 1, 2, and 3 months post-transplantation.

[4] = tested on: cell migration stimulated by CXCL12; details: cited from earlier work
[5] = solubility of Tacrolimus powder in water solutions; assay type: physicochemical

Chain of CXCR4 chomokin receptor (P61073 whole entry): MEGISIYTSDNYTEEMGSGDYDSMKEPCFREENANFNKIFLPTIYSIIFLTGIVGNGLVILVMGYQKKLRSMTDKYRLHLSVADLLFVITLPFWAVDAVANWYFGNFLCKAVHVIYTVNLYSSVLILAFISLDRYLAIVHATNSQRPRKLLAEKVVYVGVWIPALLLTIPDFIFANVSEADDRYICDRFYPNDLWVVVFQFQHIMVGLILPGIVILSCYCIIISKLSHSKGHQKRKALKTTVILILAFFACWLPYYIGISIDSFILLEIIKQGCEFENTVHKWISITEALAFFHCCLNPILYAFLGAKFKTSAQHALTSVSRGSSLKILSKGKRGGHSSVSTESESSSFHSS

Row | Compound | IC50 [1] [nM] | number of colony forming cells (CFCs) [2] | Creatinine (serum) ([3]; no re-treatment, listed as AMD3100 only) | effect on survival [3] | Survival ([3]; no re-treatment, s.c. days 0, 2, 4, 6, 8, listed as AMD3100 only) | post-operative day of death or euthanasia [3] | IC50 [4] [nM] | solubility in water solutions (e.g., saline) [5] | Survival ([3]; Re-Treatment Yes) [days] | serum creatinine level ([3]; animal 21343, POD 40 after repeat dosing) [mg/dL] | serum creatinine level ([3]; animal 21343, POD 56) [mg/dL] | serum creatinine level ([3]; animal 21343, before effect of repeat dosing at 1 month) [mg/dL] | Creatinine (serum) ([3]; Re-Treatment Yes) [mg/dL] | Creatinine (serum) ([3]; no re-treatment, listed as Tacro only) | effect on survival ([3]; listed as FK506) | Survival ([3]; no re-treatment, s.c. days 0, 2, 4, 6, 8, listed as Tacro only) | post-operative day of death ([3]; redosing at 30 days) [POD]
1 | 4F-benzoyl-TN14003 [BKT140] | ~1 |  |  |  |  |  |  |  |  |  |  |  |  |  |  |  | 
2 | c1cc(CN2CCCNCCNCCCNCC2)ccc1CN1CCCNCCNCCCNCC1 [AMD3100, 1,1′-[1,4-phenylenebis(methylene)]bis¬1,4,8,11-tetraazacyclo-tetradecane] |  | significantly increased | 22.3 mg/dL and 17.3 mg/dL and 26.4 mg/dL | no prolongation of survival | 10 days and 16 days and 9 days | 9 POD and 10 POD and 16 POD | 51 ± 17 |  |  |  |  |  |  |  |  |  | 
3 | C=CC[C@@H]1/C=C(\C)C[C@H](C)C[C@H](OC)[C@H]2O[C@@](O)(C(=O)C(=O)N3CCCC[C@H]3C(=O)O[C@H](/C(C)=C/[C@@H]3CC[C@@H](O)[C@H](OC)C3)[C@H](C)[C@@H](O)CC1=O)[C@H](C)C[C@@H]2OC [Tacrolimus] |  | significantly increased |  | prolongation of survival |  | 27 POD and 28 POD |  | poor solubility | 56 | 8.3 | 9.8 | 12.3 | 9.8 | 11.5 mg/dL and 9.9 mg/dL | prolonged survival but was ineffective against late rejection | 28 days and 27 days | 56
